Laboratory results as given in ChEMBL document CHEMBL1909046, “DrugMatrix in vitro pharmacology data”.

Key:
[1] = DRUGMATRIX: Leukotriene, BLT (LTB4) radioligand binding (ligand: [3H]LTB4); type: cell membranes, Membrane; conditions: u-937; Not Active = under 50% inhibition at 10 µM
[2] = target: Protein phosphatase 3 catalytic subunit alpha (Homo sapiens, UniProt Q08209); set-up: species or system Escherichia coli;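 note: inhibition of calcineurin (PP2B) enzyme activity, measured with DiFMUP as the substrate; in other assays of this panel Not Active means under 50% inhibition at 10 µM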
Cannabinoid receptor 1 = Cannabinoid receptor 1 (Homo sapiens, UniProt P21554); type: cell membranes, Membrane; conditions: chem-1; note: in other assays of this panel Not Active means under 50% inhibition at 10 µM
[3] = target: T1, Alpha-2A adrenergic receptor (Homo sapiens, UniProt P08913); type: cell membranes, Sf9, Membrane; note: in other assays of this panel Not Active means under 50% inhibition at 10 µM
T1 sequence (P08913 whole entry): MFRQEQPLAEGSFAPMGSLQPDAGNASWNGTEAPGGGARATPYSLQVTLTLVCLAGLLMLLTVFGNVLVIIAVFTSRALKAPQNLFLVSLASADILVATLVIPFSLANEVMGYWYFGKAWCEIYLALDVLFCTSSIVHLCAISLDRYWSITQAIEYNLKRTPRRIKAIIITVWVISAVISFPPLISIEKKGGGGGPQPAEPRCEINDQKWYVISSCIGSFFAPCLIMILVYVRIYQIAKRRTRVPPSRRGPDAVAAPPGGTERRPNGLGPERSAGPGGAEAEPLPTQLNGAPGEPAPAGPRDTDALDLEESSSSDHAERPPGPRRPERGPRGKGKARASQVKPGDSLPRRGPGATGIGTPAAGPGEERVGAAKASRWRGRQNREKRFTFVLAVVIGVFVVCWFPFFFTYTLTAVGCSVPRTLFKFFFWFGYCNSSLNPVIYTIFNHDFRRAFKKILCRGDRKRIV

[4] = DRUGMATRIX: Sigma2 radioligand binding (ligand: [3H] Ifenprodil); type: cell membranes, Rattus norvegicus, Wistar, Brain, Membrane; conditions: Not Active = under 50% inhibition at 10 µM
[5] = target: Beta-2 adrenergic receptor (Homo sapiens, UniProt P07550); assay: DRUGMATRIX: Adrenergic beta2 radioligand binding (ligand: [3H] CGP-12177); type: cell membranes, Membrane; conditions: cho; Not Active = under 50% inhibition at 10 µM

Sequence of Cannabinoid receptor 1 (P21554 whole entry): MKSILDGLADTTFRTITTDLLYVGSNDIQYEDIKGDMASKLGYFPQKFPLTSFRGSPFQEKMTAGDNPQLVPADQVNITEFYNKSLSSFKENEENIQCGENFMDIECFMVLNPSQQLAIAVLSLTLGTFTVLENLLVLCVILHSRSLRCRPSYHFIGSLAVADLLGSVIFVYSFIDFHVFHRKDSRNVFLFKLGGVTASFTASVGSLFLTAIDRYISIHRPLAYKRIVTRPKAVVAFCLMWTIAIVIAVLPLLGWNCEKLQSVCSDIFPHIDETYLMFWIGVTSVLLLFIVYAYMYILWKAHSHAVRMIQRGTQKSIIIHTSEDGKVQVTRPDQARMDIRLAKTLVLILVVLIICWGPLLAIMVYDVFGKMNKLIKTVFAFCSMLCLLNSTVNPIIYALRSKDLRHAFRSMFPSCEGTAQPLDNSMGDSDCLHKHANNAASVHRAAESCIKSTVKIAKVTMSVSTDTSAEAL

CCCCc1nc(Cl)c(CO)n1Cc1ccc(-c2ccccc2-c2nnn[nH]2)cc1 [LOSARTAN]
IC50 [1]: Not Active | Ki [1]: Not Active | IC50 [2]: Not Active | IC50 (Cannabinoid receptor 1): Not Active | IC50 ([3]; sf9): Not Active | IC50 [4]: Not Active | Ki [4]: Not Active | IC50 [5]: Not Active

Nc1c(Br)cc(Br)cc1CN[C@H]1CC[C@H](O)CC1 [AMBROXOL]
IC50 [1]: Not Active | Ki [1]: Not Active | IC50 [2]: Not Active | IC50 (Cannabinoid receptor 1): Not Active | IC50 ([3]; sf9): Not Active | IC50 [4]: Not Active | Ki [4]: Not Active | IC50 [5]: Not Active

CNCCc1ccccn1 [BETAHISTINE]
IC50 [1]: Not Active | Ki [1]: Not Active | IC50 [2]: Not Active | IC50 (Cannabinoid receptor 1): Not Active | IC50 ([3]; sf9): Not Active | IC50 [4]: Not Active | Ki [4]: Not Active | IC50 [5]: Not Active

O=C(O)CCCc1ccc(N(CCCl)CCCl)cc1 [CHLORAMBUCIL]
IC50 [1]: Not Active | Ki [1]: Not Active | IC50 [2]: Not Active | IC50 (Cannabinoid receptor 1): Not Active | IC50 ([3]; sf9): Not Active | IC50 [4]: Not Active | Ki [4]: Not Active | IC50 [5]: Not Active

NC(=O)N1c2ccccc2CCc2ccccc21
IC50 [1]: Not Active | Ki [1]: Not Active | IC50 [2]: Not Active | IC50 (Cannabinoid receptor 1): Not Active | IC50 ([3]; sf9): Not Active | IC50 [4]: Not Active | Ki [4]: Not Active | IC50 [5]: Not Active

NCCCCCC(=O)O [AMINOCAPROIC ACID]
IC50 [1]: Not Active | Ki [1]: Not Active | IC50 [2]: Not Active | IC50 (Cannabinoid receptor 1): Not Active | IC50 ([3]; sf9): Not Active | IC50 [4]: Not Active | Ki [4]: Not Active | IC50 [5]: Not Active

C=C(C)C1(O)OC(=O)C=C1OC (stereo unspecified) [PENICILLIC ACID]
IC50 [1]: Not Active | Ki [1]: Not Active | IC50 [2]: Not Active | IC50 (Cannabinoid receptor 1): Not Active | IC50 ([3]; sf9): Not Active | IC50 [4]: Not Active | Ki [4]: Not Active | IC50 [5]: Not Active

CC1(C)O[C@@H]2C[C@H]3[C@@H]4CCC5=CC(=O)CC[C@]5(C)[C@@]4(F)[C@@H](O)C[C@]3(C)[C@]2(C(=O)CCl)O1 [HALCINONIDE]
IC50 [1]: Not Active | Ki [1]: Not Active | IC50 [2]: Not Active | IC50 (Cannabinoid receptor 1): Not Active | IC50 ([3]; sf9): Not Active | IC50 [4]: Not Active | Ki [4]: Not Active | IC50 [5]: Not Active

LIPOPOLYSACCHARIDE E. COLI O55:B5
IC50 [1]: Not Active | Ki [1]: Not Active | IC50 [2]: Not Active | Ki [2]: Not Active | IC50 (Cannabinoid receptor 1): Not Active | Ki (Cannabinoid receptor 1): Not Active | IC50 ([3]; sf9): Not Active | Ki ([3]; sf9): Not Active | IC50 [4]: Not Active | Ki [4]: Not Active | IC50 [5]: Not Active | Ki [5]: Not Active

COc1cc2c3cc1Oc1cc(ccc1O)C[C@@H]1c4c(cc(OC)c(O)c4Oc4ccc(cc4)C[C@@H]3N(C)CC2)CC[N+]1(C)C.[Cl-]
IC50 [1]: Not Active | Ki [1]: Not Active | IC50 [2]: Not Active | IC50 (Cannabinoid receptor 1): Not Active | IC50 ([3]; sf9): Not Active | IC50 [4]: Not Active | Ki [4]: Not Active | IC50 [5]: Not Active

Cc1cc(C(C#N)c2ccc(Cl)cc2)c(Cl)cc1NC(=O)c1cc(I)cc(I)c1O (stereo unspecified) [CLOSANTEL]
IC50 [1]: Not Active | Ki [1]: Not Active | IC50 [2]: Not Active | IC50 (Cannabinoid receptor 1): Not Active | IC50 ([3]; sf9): Not Active | IC50 [4]: Not Active | Ki [4]: Not Active | IC50 [5]: Not Active

CC(NC(C)(C)C)C(=O)c1cccc(Cl)c1 (stereo unspecified) [BUPROPION]
IC50 [1]: Not Active | Ki [1]: Not Active | IC50 [2]: Not Active | IC50 (Cannabinoid receptor 1): Not Active | IC50 ([3]; sf9): Not Active | IC50 ([4]; read-out: IC50): 2320 nM | Ki ([4]; read-out: Ki): 1420 nM | IC50 [5]: Not Active

Cc1onc(-c2ccccc2Cl)c1C(=O)N[C@@H]1C(=O)N2[C@@H]1SC(C)(C)[C@@H]2C(=O)O [CLOXACILLIN]
IC50 [1]: Not Active | Ki [1]: Not Active | IC50 [2]: Not Active | IC50 (Cannabinoid receptor 1): Not Active | IC50 ([3]; sf9): Not Active | IC50 [4]: Not Active | Ki [4]: Not Active | IC50 [5]: Not Active

CADMIUM ACETATE
IC50 [1]: Not Active | Ki [1]: Not Active | IC50 [2]: Not Active | Ki [2]: Not Active | IC50 (Cannabinoid receptor 1): Not Active | Ki (Cannabinoid receptor 1): Not Active | IC50 ([3]; sf9, read-out: IC50): 4560 nM | IC50 [4]: Not Active | Ki [4]: Not Active | IC50 [5]: Not Active | Ki [5]: Not Active

C[C@]12CC[C@@H]3c4ccc(O)cc4CC[C@H]3[C@@H]1CCC2=O [ESTRONE]
IC50 [1]: Not Active | Ki [1]: Not Active | IC50 [2]: Not Active | IC50 (Cannabinoid receptor 1): Not Active | IC50 ([3]; sf9): Not Active | IC50 [4]: Not Active | Ki [4]: Not Active | IC50 [5]: Not Active

C[C@]12CCC(=O)C=C1CC[C@@H]1[C@@H]2CC[C@@]2(C)[C@H]1CC[C@]2(C)O [METHYLTESTOSTERONE]
IC50 [1]: Not Active | Ki [1]: Not Active | IC50 [2]: Not Active | IC50 (Cannabinoid receptor 1): Not Active | IC50 ([3]; sf9): Not Active | IC50 [4]: Not Active | Ki [4]: Not Active | IC50 [5]: Not Active

CC(=O)O[C@@]12CO[C@@H]1C[C@H](O)[C@@]1(C)C(=O)[C@H](O)C3=C(C)[C@@H](OC(=O)[C@H](O)[C@@H](NC(=O)OC(C)(C)C)c4ccccc4)C[C@@](O)([C@@H](OC(=O)c4ccccc4)[C@H]21)C3(C)C.O.O.O [DOCETAXEL]
IC50 [1]: Not Active | Ki [1]: Not Active | IC50 [2]: Not Active | IC50 (Cannabinoid receptor 1): Not Active | IC50 ([3]; sf9): Not Active | IC50 [4]: Not Active | Ki [4]: Not Active | IC50 [5]: Not Active

Nc1ncn([C@@H]2O[C@H](CO)[C@@H](O)[C@H]2O)c(=O)n1 [AZACITIDINE]
IC50 [1]: Not Active | Ki [1]: Not Active | IC50 [2]: Not Active | IC50 (Cannabinoid receptor 1): Not Active | IC50 ([3]; sf9): Not Active | IC50 [4]: Not Active | Ki [4]: Not Active | IC50 [5]: Not Active

C[C@](N)(Cc1ccc(O)c(O)c1)C(=O)O [METHYLDOPA]
IC50 [1]: Not Active | Ki [1]: Not Active | IC50 [2]: Not Active | IC50 (Cannabinoid receptor 1): Not Active | IC50 ([3]; sf9): Not Active | IC50 [4]: Not Active | Ki [4]: Not Active | IC50 [5]: Not Active

O=C(CCCN1CC=C(n2c(=O)[nH]c3ccccc32)CC1)c1ccc(F)cc1 [DROPERIDOL]
IC50 [1]: Not Active | Ki [1]: Not Active | IC50 [2]: Not Active | IC50 (Cannabinoid receptor 1): Not Active | IC50 ([3]; read-out: IC50): 2960 nM | Ki ([3]; read-out: Ki): 1110 nM | IC50 ([4]; read-out: IC50): 3280 nM | Ki ([4]; read-out: Ki): 2020 nM | IC50 [5]: Not Active

CN(C)CCCN1c2ccccc2Sc2ccccc21 [PROMAZINE]
IC50 [1]: Not Active | Ki [1]: Not Active | IC50 [2]: Not Active | IC50 (Cannabinoid receptor 1): Not Active | IC50 ([3]; read-out: IC50): 337 nM | Ki ([3]; read-out: Ki): 126 nM | IC50 ([4]; read-out: IC50): 2540 nM | Ki ([4]; read-out: Ki): 1560 nM | IC50 [5]: Not Active

CN(C)c1nc(N(C)C)nc(N(C)C)n1 [ALTRETAMINE]
IC50 [1]: Not Active | Ki [1]: Not Active | IC50 [2]: Not Active | IC50 (Cannabinoid receptor 1): Not Active | IC50 ([3]; sf9): Not Active | IC50 [4]: Not Active | Ki [4]: Not Active | IC50 [5]: Not Active

CC1CC(OC(=O)C(O)c2ccccc2)CC(C)(C)C1 (stereo unspecified) [CYCLANDELATE]
IC50 [1]: Not Active | Ki [1]: Not Active | IC50 [2]: Not Active | IC50 (Cannabinoid receptor 1): Not Active | IC50 ([3]; sf9): Not Active | IC50 [4]: Not Active | Ki [4]: Not Active | IC50 [5]: Not Active

c1ccc2c(c1)c1cccc3ccc4cccc2c4c31 [BENZO[E]PYRENE]
IC50 [1]: Not Active | Ki [1]: Not Active | IC50 [2]: Not Active | IC50 (Cannabinoid receptor 1): Not Active | IC50 ([3]; sf9): Not Active | IC50 [4]: Not Active | Ki [4]: Not Active | IC50 [5]: Not Active
